Reference: ChEMBL document CHEMBL1125442, “Amide bond replacements incorporated into CCK-B selective "dipeptoids"” (J Med Chem, 1992)
pIC50: −log10 of the molar value. Values joined by “and” are separate entries in the source; they are usually repeats but may differ in a detail not shown here. Equal values may be shown once.

Columns and labels:
[1] = Selectivity ratio defined as the ratio of IC50(CCK-A)/IC50(CCK-B)
[2] = molecular target: Cholecystokinin receptor type A (Rattus norvegicus) (UniProt P30551); assay: Inhibition of [125I]CCK-8 binding to cholecystokinin type A receptor in the rat pancreas
[3] = molecular target: Gastrin/cholecystokinin type B receptor (Mus musculus) (UniProt P56481); assay: Inhibition of [125I]CCK-8 binding to cholecystokinin type B receptor in the mouse cerebral cortex

SMILES | Ratio [1] | pIC50 [2] | pIC50 [3]
CN(CCc1ccccc1)C(=O)C(C)(Cc1c[nH]c2ccccc12)NC(=O)OC1[C@H]2C[C@@H]3C[C@@H](C[C@H]1C3)C2 (some centres not stated) | 6.2 | 6.12 | 6.91
COC(=O)CCC(=O)N[C@H](COC(=O)C(C)(Cc1c[nH]c2ccccc12)NC(=O)OC1[C@H]2C[C@@H]3C[C@@H](C[C@H]1C3)C2)c1ccccc1 (some centres not stated) | 4.9 | 6.45 | 7.15
CC(Cc1c[nH]c2ccccc12)(CN(CCc1ccccc1)C(=O)CCC(=O)O)NC(=O)OC1[C@H]2C[C@@H]3C[C@@H](C[C@H]1C3)C2 (some centres not stated) | 0.85 | 5.97 | 5.90
CC(Cc1c[nH]c2ccccc12)(NC(=O)OC1[C@H]2C[C@@H]3C[C@@H](C[C@H]1C3)C2)C(=O)SCCc1ccccc1 (some centres not stated) | 1.3 | 5.92 | 6.03
CN(C(=O)C(Cc1c[nH]c2ccccc12)NC(=O)OC1[C@H]2C[C@@H]3C[C@@H](C[C@H]1C3)C2)C(CO)Cc1ccccc1 (some centres not stated) | 0.74 | 5.97 | 5.84
CC(Cc1c[nH]c2ccccc12)(NC(=O)OC1[C@H]2C[C@@H]3C[C@@H](C[C@H]1C3)C2)C(O)CCCc1ccccc1 (some centres not stated) [listing 1 of 3 here] | 1.3 and 2.1 | – | –
O=C(NC(CNC(CO)Cc1ccccc1)Cc1c[nH]c2ccccc12)OC1[C@H]2C[C@@H]3C[C@@H](C[C@H]1C3)C2 (some centres not stated) | 0.11 | 5.90 | 4.94
CC(Cc1c[nH]c2ccccc12)(NC(=O)OC1[C@H]2C[C@@H]3C[C@@H](C[C@H]1C3)C2)C(=S)NCCc1ccccc1 (some centres not stated) | – | 5.82 | 6.09
CC(Cc1c[nH]c2ccccc12)(NC(=O)OC1[C@H]2C[C@@H]3C[C@@H](C[C@H]1C3)C2)C(O)CCCc1ccccc1 (some centres not stated) [listing 2 of 3 here] | – | 5.58 | 5.71
O=C(NC(Cc1c[nH]c2ccccc12)C(=S)NC(CO)Cc1ccccc1)OC1[C@H]2C[C@@H]3C[C@@H](C[C@H]1C3)C2 (some centres not stated) | – | 5.70 | 5.80
CCOC(=O)CCC(=O)N(CCc1ccccc1)CC(C)(Cc1c[nH]c2ccccc12)NC(=O)OC1[C@H]2C[C@@H]3C[C@@H](C[C@H]1C3)C2 (some centres not stated) | 2.3 | 6.17 | 5.79
CCOC(=O)CCCCCC(=O)N(CCc1ccccc1)CC(C)(Cc1c[nH]c2ccccc12)NC(=O)OC1[C@H]2C[C@@H]3C[C@@H](C[C@H]1C3)C2 (some centres not stated) | 4.1 | 5.45 | 6.06
O=C(NC(Cc1c[nH]c2ccccc12)/C(S)=N/C(CO)Cc1ccccc1)OC1[C@H]2C[C@@H]3C[C@@H](C[C@H]1C3)C2 (some centres not stated) | 1.2 | – | –
CC(Cc1c[nH]c2ccccc12)(NC(=O)OC1[C@H]2C[C@@H]3C[C@@H](C[C@H]1C3)C2)C(=O)OCCc1ccccc1 (some centres not stated) | 2 | 5.97 | 6.26
CC(CCCCc1ccccc1)(Cc1c[nH]c2ccccc12)NC(=O)OC1[C@H]2C[C@@H]3C[C@@H](C[C@H]1C3)C2 (some centres not stated) | 2.2 | 4.71 | 5.06
CC(Cc1c[nH]c2ccccc12)(NC(=O)OC1[C@H]2C[C@@H]3C[C@@H](C[C@H]1C3)C2)/C(S)=N/CCc1ccccc1 (some centres not stated) | 1.9 | – | –
O=C(NC(Cc1c[nH]c2ccccc12)C(=O)NC(CO)Cc1ccccc1)OC1[C@H]2C[C@@H]3C[C@@H](C[C@H]1C3)C2 (some centres not stated) | 1.3 | 5.97 | 6.07
CC(Cc1c[nH]c2ccccc12)(NC(=O)OC1[C@H]2C[C@@H]3C[C@@H](C[C@H]1C3)C2)C(O)CCCc1ccccc1 (some centres not stated) [listing 3 of 3 here] | – | 5.91 | 6.23
O=C(NC(Cc1c[nH]c2ccccc12)C(=O)OC(CO)Cc1ccccc1)OC1[C@H]2C[C@@H]3C[C@@H](C[C@H]1C3)C2 (some centres not stated) | 1.6 | 5.53 | 5.72
